Activity calls are given as the source filed them. The rule behind the calls is not given here.
Tests used:
MDA-MB-231 = assay: Antiproliferative activity against human triple-negative MDA-MB-231 cells at 52 to 65 uM after 72 hrs by CellTiter-Glo assay; type: functional, cell-based
Homo sapiens = species: Homo sapiens; assay: Antiproliferative activity against human ER-positive MA11 cells at 52 to 65 uM after 72 hrs by CellTiter-Glo assay; type: functional
MCF7 = assay: Antiproliferative activity against human ER-positive MCF7 cells at 52 to 65 uM after 72 hrs by CellTiter-Glo assay; type: functional, cell-based
HEK293 = assay: Cytotoxicity against HEK293 cells at 52 to 65 uM after 72 hrs by CellTiter-Glo assay; type: cell-based; conditions: human, hek293, 72 h
HepG2 = assay: Cytotoxicity against human HepG2 cells at 52 to 65 uM after 72 hrs by CellTiter-Glo assay; type: cell-based; conditions: hepg2, 72 h

Compound	Activity (MDA-MB-231)	Activity (Homo sapiens)	Activity (MCF7)	Activity (HEK293)	Activity (HepG2)
CC(C)c1ccc2c(c1)CC[C@H]1[C@](C)(CNC(=O)c3cccs3)CCC[C@]21C	inactive	inactive	inactive	Non-toxic	Non-toxic
CC(C)c1ccc2c(c1)CC[C@H]1[C@](C)(CNC(=O)c3ccc(I)cc3)CCC[C@]21C	inactive	inactive	inactive	Non-toxic	Non-toxic
CC(C)c1ccc2c(c1)CC[C@H]1[C@](C)(CNC(=O)CC3CCCC3)CCC[C@]21C	inactive	inactive	inactive	Non-toxic	Non-toxic
CC(C)c1ccc2c(c1)CC[C@H]1[C@](C)(CNC(=O)c3ccc(Cl)c([N+](=O)[O-])c3)CCC[C@]21C	inactive	inactive	inactive	Non-toxic	Non-toxic
CC(C)c1ccc2c(c1)CC[C@H]1[C@](C)(CNC(=O)c3ccc(-c4ccccc4)cc3)CCC[C@]21C	inactive	inactive	inactive	Non-toxic	Non-toxic
CC(C)c1ccc2c(c1)CC[C@H]1[C@](C)(CNC(=O)c3ccc(F)cc3)CCC[C@]21C	inactive	inactive	inactive	Non-toxic	Non-toxic
CC(C)c1ccc2c(c1)CC[C@H]1[C@](C)(CNC(=O)C3CC4C=CC3C4)CCC[C@]21C (stereo not given in full)	inactive	inactive	inactive	Non-toxic	Non-toxic
Cc1nnsc1C(=O)NC[C@]1(C)CCC[C@]2(C)c3ccc(C(C)C)cc3CC[C@@H]12	inactive	inactive	inactive	Non-toxic	Non-toxic
CC(C)c1ccc2c(c1)CC[C@H]1[C@](C)(CNC(=O)C3CCCC3)CCC[C@]21C	inactive	inactive	inactive	Non-toxic	Non-toxic
CC(C)c1ccc2c(c1)CC[C@H]1[C@](C)(CNC(=O)[C@@H]3C[C@H]3c3ccccc3)CCC[C@]21C	inactive	inactive	inactive	Non-toxic	Non-toxic
Cc1ccsc1C(=O)NC[C@]1(C)CCC[C@]2(C)c3ccc(C(C)C)cc3CC[C@@H]12	inactive	inactive	inactive	Non-toxic	Non-toxic
CC(C)c1ccc2c(c1)CC[C@H]1[C@](C)(CNC(=O)N3CCCCC3)CCC[C@]21C	inactive	inactive	inactive	Non-toxic	Non-toxic
COc1cccc(C(=O)NC[C@]2(C)CCC[C@]3(C)c4ccc(C(C)C)cc4CC[C@@H]23)c1	inactive	inactive	inactive	Non-toxic	Non-toxic
CC(C)c1ccc2c(c1)CC[C@H]1[C@](C)(CNC(=O)[C@@H](C)c3ccccc3)CCC[C@]21C	inactive	inactive	inactive	Non-toxic	Non-toxic
CC(C)c1ccc2c(c1)CC[C@H]1[C@](C)(CNC(=O)c3c(Cl)cc(Cl)cc3Cl)CCC[C@]21C	inactive	inactive	inactive	Non-toxic	Non-toxic
